Values of other authors as cited in patent publication EP1190712A1 (SMB Technology, priority 2000, dated 2002).

Settings: human, in vivo

COc1cccc(C2(O)CCCCC2CN(C)C)c1 (stereo not shown) [Tramadol]
Cmax (time): 30 to 60 min
